This passage reports IC50 and inhibition results from patent publication US4579866A, “Phenylacetamides as anti-allergy, anti-asthma and anti-inflammatory agents” (USV Pharmaceutical Corp., priority 1984, dated 1986).

SMILES strings stand for the structures.

What is called inhibition is how much of the control response was suppressed. Lower therefore signals a response near the control.

The target of experiment [1] is T1, RAT 5-LIPOXYGENASE (Rattus norvegicus, UniProt P12527).
T1 construct: A suspension of rat neutrophils in buffer; endogenous in cells; host or cells: rat neutrophils (polymorphonuclear leukocytes)
T1 sequence (P12527 1-673): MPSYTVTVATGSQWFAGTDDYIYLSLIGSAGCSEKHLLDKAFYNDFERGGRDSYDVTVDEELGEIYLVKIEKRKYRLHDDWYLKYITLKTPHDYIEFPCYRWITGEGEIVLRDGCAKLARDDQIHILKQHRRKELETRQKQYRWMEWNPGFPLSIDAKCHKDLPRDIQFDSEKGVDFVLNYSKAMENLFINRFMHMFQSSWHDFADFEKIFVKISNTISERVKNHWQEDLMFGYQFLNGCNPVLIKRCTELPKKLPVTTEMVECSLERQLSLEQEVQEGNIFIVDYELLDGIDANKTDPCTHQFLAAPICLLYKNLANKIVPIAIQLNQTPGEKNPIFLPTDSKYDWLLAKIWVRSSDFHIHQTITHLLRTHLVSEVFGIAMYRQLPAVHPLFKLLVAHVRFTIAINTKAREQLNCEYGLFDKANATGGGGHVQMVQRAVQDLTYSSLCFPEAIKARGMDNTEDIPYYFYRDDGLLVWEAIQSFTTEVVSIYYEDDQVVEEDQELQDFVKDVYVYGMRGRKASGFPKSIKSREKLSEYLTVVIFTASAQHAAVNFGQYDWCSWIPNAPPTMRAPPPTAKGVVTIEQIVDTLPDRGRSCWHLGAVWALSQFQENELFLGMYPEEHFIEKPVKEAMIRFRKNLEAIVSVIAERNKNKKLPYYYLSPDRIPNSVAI
Description: Biosynthesis of 5-HETE by rat polymorphonuclear leukocytes in vitro (inhibition of rat 5-lipoxygenase). Format: cell-based. Particulars: rat neutrophils, A23187, 3 minutes at 30° C.; for IC50: concentration at which 50% inhibition is observed, read-out: INHIBITION OF RAT 5-LIPOXYGENASE, I50. The protocol: Protocol for the Biosynthesis of 5-HETE by Rat Polymorphonuclear Leukocytes In Vitro
A suspension of rat neutrophils in buffer is incubated for 3 minutes at 30° C. with [^14 C]-arachidonic acid (AA) and calcium ionophore A23187. Citric Acid (2M) NDGA (10 mM) is used to quench the reaction. Following the addition of a trace amount of (^3 H)-5-HETE together with an excess of unlabeled 5-HETE to each tube, the mixture is extracted with chloroform/methanol. The organic layer is washed with dilute acid and an aliquot is transferred to glass tubes and dried. The residue is dissolved in a small volume of chloroform and an aliquot is spotted on silica gel TLC sheets, which are developed with an ethyl acetate/isoctane/water/acetic acid solvent system. The 5-HETE spots are visualized under UV light, cut out and placed in scintillation vials for counting. After adjusting for the extraction efficiency, the amount (pmole) of [^14 C]-5-HETE in each of the tubes is quantitated. The net pmoles of 5-HETE are obtained by subtracting the pmoles of 5-HETE in the tubes containing buffer alone (blank) from the pmoles of 5-HETE in the tubes containing […]. The ability of the test compounds to modulate the activity of this enzyme is determined by a decrease or increase in the net amount of 5-HETE produced.
(§1) If the percentage of inhibition exceeds 50%, the compounds are then evaluated in terms of response over a range of concentrations. From a plot of response against concentration, the I50 value is obtained. The I50 value is the concentration at which 50% inhibition is observed.

The subject of experiment [2] is LTC4. Description: Antagonism of leukotriene C4 binding (guinea pig peripheral lung strips, contraction). Format: cell-based. Particulars: Cavia porcellus, leukotriene C4 usually 0.2 nM, 37° C., read-out: ANTAGONISM OF LTC4 BINDING, I50. The protocol:
Protocol for Antagonism of Leukotrines C-4 Binding
Peripheral strips of guinea pig lungs are prepared and hung in tissue baths according to the procedure described by Drazen et al. (Proc. Nat'l. Acad. Sci., U.S.A. 77, 4354-4358, 1980). Male guinea pigs (Charles River, 250-400 g) are sacrificed by cervical dislocation and their lungs rapidly removed. The individual lobes are dissected free and rinsed in Assay Buffer (118 mM NaCl, 5.4 mM KCl, 2.5 mM CaCl2, 25 mM […], 1 mM MgSO4, 1 mM NaH2 PO4, 11 mM glucose) which is continuously aerated with 95% oxygen/5% carbon dioxide. After the lobes are extensively rinsed, a strip of lung tissue, approximately 2 mm thick and 5-8 cm long, is cut off the sharpest and most peripheral portion of each lobe. The peripheral edge is cut almost completely around the outside of the lobe so that a U-shaped strip is obtained. These strips are rinsed in Assay Buffer and then connected with surgical silk thread to the support rods of the water jacketed tissue baths (10 ml chambers). The other ends of the strips are connected to Gould UC3 pressure transducers which had been previously calibrated. The tissue baths are aerated with 95% oxygen/5% carbon dioxide and maintained at 37° C. The tension on these strips are adjusted to 500 mg. The tissues are initially washed with fresh buffer every 5-10 minutes for about 30 minutes and thereafter washed with fresh assay buffer at least every 20 minutes.
After the tissue had been repeatedly washed and allowed to equilibrate in the tissue baths, they are challenged with 1 μM histamine to standardize the contractions for each tissue.
Responses of each tissue to a predetermined concentration (usually 0.2 nM) of leukotriene C4 are then obtained. Compounds are then tested for their ability to antagonize to leukotriene C4 immediately upon challenge.
as §1

As for `C=CCOc1ccc(CC(=O)N(C)Cc2ccccc2)cc1Cl` [N--benzyl, N--methyl-3-chloro-4-allyloxy-phenylacetamide], the IC50 in experiment [1] came to 20 µM. Same read-out and setting: under `C=CCOc1ccc(CC(=O)N(C)[C@H](C)[C@@H](O)c2ccccc2)cc1Cl` [4-Allyloxy-3-chlorophenylacetyl-(+)-ephedrine] stands 15 µM. In the case of `C=CCOc1ccc(CC(=O)N(C)CC(O)c2ccccc2)cc1Cl` (centres unmarked) [N--[4-Allyloxy-3-chlorophenylacetyl]-N--methyl-2-hydroxy-2-phenylethylamine], the values for the IC50 in experiment [1] and in experiment [2] were 1.8 µM and 18 µM, respectively. The matching figures for `C=CCOc1ccc(CC(=O)N[C@H](Cc2ccccc2)C(=O)OC)cc1Cl` [4-Allyloxy-3-chlorophenylacetyl-D-phenylalanine methyl ester]: 0.7 µM and 9 µM. Regarding `O=C(Cc1ccc(OCc2ccccc2)c(Cl)c1)N[C@H](Cc1ccccc1)C(=O)O` [4-Benzyloxy-3-chlorophenylacetyl-D-phenylalanine], the inhibition at 10 µM in experiment [1] was 40%. In the case of `C=CCOc1ccc(CC(=O)NCC(C)c2ccccc2)cc1Cl` (centres unmarked) [N--[4-Allyloxy-3-chlorophenylacetyl]-1-amino-2-phenylpropane], at 10 µM the inhibition in experiment [1] was 18%. Moreover, the IC50 in experiment [2] is 2.5 µM. As to `C=CCOc1ccc(CC(=O)NCC(O)c2ccccc2)cc1Cl` (centres unmarked) [N--[4-Allyloxy-3-chlorophenylacetyl]-2-hydroxy-2-phenylethylamine], in experiment [1], the IC50 was found to be 20 µM. `C=CCOc1ccc(CC(=O)N(CC(=O)OCC)Cc2ccccc2)cc1Cl` [4-Allyloxy-3-chlorophenylacetyl-N--benzylglycine ethyl ester]: the values for the IC50 in experiment [1] and in experiment [2] were 8 µM and 20 µM, respectively. In experiment [1], `C=CCOc1ccc(C(=O)N[C@@H](Cc2ccccc2)C(=O)OC)cc1Cl` [4-Allyloxy-3-chlorobenzoyl-L-phenylalanine methyl ester] showed an inhibition at 10 µM of 34%. For the same compound, the IC50 in experiment [2] turned out to be 15 µM. On to `COC(=O)[C@@H](Cc1ccccc1)NC(=O)Cc1ccc(OC)c(Cl)c1` [3-Chloro-4-methoxyphenylacetyl-D-phenylalanine methyl ester], for which, in experiment [1], the IC50 worked out at 3.8 µM.

`C=CCOc1ccc(CC(=O)N(C)[C@@H](C)[C@H](O)c2ccccc2)cc1Cl` [4-Allyloxy-3-chlorophenylacetyl-(-)-ephedrine]: the IC50 in experiment [1] was found to be 30 µM. In turn, `C=CCOc1ccc(CC(=O)N[C@@H](Cc2ccccc2)C(=O)OC)cc1Cl` [4-Allyloxy-3-chlorophenylacetyl-L-phenylalanine methyl ester] registered an inhibition at 10 µM in experiment [1] of 27%. In addition, the IC50 in experiment [2] is 5 µM.

For `C=CCOc1ccc(CC(=O)N(CCO)Cc2ccccc2)cc1Cl` [N--benzyl, N--[2-hydroxyethyl]-3-chloro-4-allyloxyphenylacetamide], in experiment [1], the inhibition at 10 µM came to 41%. The same measure, in the same setting: with `COC(=O)[C@@H](Cc1ccccc1)NC(=O)Cc1ccc(OCc2ccc3ccccc3n2)c(Cl)c1` [1-Chloro-4-[2-quinolinemethyloxy]-phenylacetyl-D-phenylalanine methyl ester] the figure was 50%.

In experiment [1], `C=CCOc1ccc(CC(=O)NC(Cc2ccc(Cl)cc2)C(=O)OC)cc1Cl` (racemic) [4-Allyloxy-3-chlorophenylacetyl-DL-p-chlorophenylalanine methyl ester] gave an inhibition at 10 µM of 25%. Moreover, the IC50 in experiment [2] turned out to be 9 µM. The matching figures for `C=CCOc1ccc(CC(=O)N[C@H](CO)Cc2ccccc2)cc1Cl` [N--[4-Allyloxy-3-chlorophenylacetyl]-L-phenylalaninol]: 33% and 3 µM. In experiment [1], `COC(=O)[C@H](Cc1ccccc1)NC(=O)c1ccc(OC2C=CCCC2)cc1` (stereo partly drawn) [4-[2-Cyclohexenyloxy]-benzoyl-L-phenylalanine methyl ester] displayed an inhibition at 10 µM of 33%. On the same count and under the same terms, under `C=CCOc1ccc(CC(=O)NC(CO)C(O)c2ccccc2)cc1Cl` [N--[4-Allyloxy-3-chlorophenylacetyl]-3S-hydroxy-L-phenylalaninol] stands 36%.

`COC(=O)[C@H](Cc1ccccc1)NC(=O)Cc1ccc(OCc2ccccc2)cc1` [4-Benzyloxyphenylacetyl-L-phenylalanine methyl ester]: in experiment [1], 10 µM produced 29% inhibition. For the same compound, the IC50 in experiment [2] is 5 µM.

Turning to `COc1ccc(CC(=O)N(C)CCc2ccccc2)cc1Cl` [N--[3-Chloro-4-methoxyphenylacetyl]-N--methyl-2-phenylethylamine], the inhibition at 10 µM in experiment [1] is 33%.
